As usually defined, the logD is the decadic logarithm of the distribution of all forms, ionised or not, between an organic phase and buffer at a given pH. In general, IC50 refers to the concentration that gives 50% inhibition.

Bounds are passed on as bounds.

The source of these data is ChEMBL document CHEMBL2016476, “Phosphonium lipocations as antiparasitic agents” (Bioorg Med Chem Lett, 2012).

Data set [1] in a line: Octanol-water partition coefficient, log D of the compound at pH 7.4. The class given is physicochemical.
In the next data set the test system is Plasmodium falciparum. Briefly: microbe, parasite or virus in culture. The settings on record: W2.
Another data set relates to Trypanosoma cruzi. Kind of data set: Antitrypanosomal activity against Trypanosoma cruzi Tulahuen 2 infected in african green monkey Vero cells expressing red fluorescent protein after 3 days by fluorescence analysis. The class given is functional, organism-based. Particulars: Tulahuen 2, Vero, 72 h.
Data set [2] relates to Vero. Briefly: Cytotoxicity against african green monkey Vero cells at 25 uM after 3 days. The class given is cell-based. Particulars: chlorocebus sabaeus, 72 h.
In data set [3] the test system is Vero. Kind of data set: Cytotoxicity against african green monkey Vero cells at 6.25 uM after 3 days. Type of data set: cell-based. The settings on record: chlorocebus sabaeus, 72 h.

Description for Plasmodium falciparum: Antiplasmodial activity against Plasmodium falciparum W2 infected in human erythrocytes

Take `CC1=C(CCCCCCCCCC[P+](C)(C)C)C(=O)c2ccccc2C1=O`: the logD in data set [1] is on record as 1.95. Moreover, in the data set with Plasmodium falciparum, the IC50 turned out to be 404 nM.

In turn, `C[P+](C)(C)CCCCCCCCCCN1C(=O)c2ccccc2C1=O` gave a logD in data set [1] of -0.08. This compound also had a 50% inhibitory concentration (IC50) with Plasmodium falciparum greater than 10000 nM.

`O=C1c2ccccc2C(=O)N1CCCC[P+](c1ccccc1)(c1ccccc1)c1ccccc1` displayed a pH-dependent lipophilicity (logD) in data set [1] of 0.01. Further, in the data set with Plasmodium falciparum, the IC50 stood at 3500 nM.

Compound `O=C1c2ccccc2C(=O)N1CCCCCC[P+](c1ccccc1)(c1ccccc1)c1ccccc1` had a logD in data set [1] of 1.14. Further, it took 1020 nM to reach half-maximal inhibition in the data set on Plasmodium falciparum (IC50).

As for `O=C1c2ccccc2C(=O)N1CCCCCCCCCC[P+](c1ccc(F)cc1)(c1ccc(F)cc1)c1ccc(F)cc1`, the logD in data set [1] worked out at 2.13. This compound also came in with a concentration for half-maximal inhibition (IC50) in the data set on Plasmodium falciparum of 346 nM.

Take `O=C1c2ccccc2C(=O)N1CCCCCCCCCC[P+](Cc1ccccc1)(Cc1ccccc1)Cc1ccccc1`: the logD in data set [1] was determined as 1.37. Half-maximal inhibition with Plasmodium falciparum (IC50) required 288 nM.

Consider `CCCC[P+](CCCC)(CCCC)CCCCCCCCCCN1C(=O)c2ccccc2C1=O`, for which the log distribution coefficient (logD) in data set [1] was found to be 3.68. Also, the half-inhibitory concentration (IC50) in the data set with Plasmodium falciparum stood at 194 nM.

For `O=C1c2ccccc2C(=O)N1CCCCCCCCCC[P+](c1ccccc1)(c1ccccc1)c1ccccc1`, the pH-dependent lipophilicity (logD) in data set [1] was 1.67. The IC50 with Plasmodium falciparum came to 173 nM.

With `Cc1ccccc1[P+](CCCCCCCCCCN1C(=O)c2ccccc2C1=O)(c1ccccc1C)c1ccccc1C`, in data set [1], the log distribution coefficient (logD) is given as -0.75. For the same compound, the concentration for half-maximal inhibition (IC50) in the data set on Plasmodium falciparum came to 143 nM.

In data set [1], `O=C1c2ccccc2C(=O)N1CCCCCCCCCC[P+](C1CCCCC1)(C1CCCCC1)C1CCCCC1` returned a logD of 4.5. Further, the half-inhibitory concentration (IC50) with Plasmodium falciparum was found to be 141 nM.

With `COc1ccc([P+](CCCCCCCCCCN2C(=O)c3ccccc3C2=O)(c2ccc(OC)cc2)c2ccc(OC)cc2)cc1`, in data set [1], the logD came to 3.19. In the data set with Plasmodium falciparum, this compound gave a half-maximal inhibitory concentration (IC50) of 134 nM.

On to `O=C1C=C(NCC[P+](c2ccccc2)(c2ccccc2)c2ccccc2)C(=O)c2ccccc21`, for which the logD in data set [1] is listed as -1.08. Also, the IC50 in the data set on Plasmodium falciparum turned out to be 520 nM.

As for `O=C1C=C(NCCCCCCCCCC[P+](c2ccc(F)cc2)(c2ccc(F)cc2)c2ccc(F)cc2)C(=O)c2ccccc21`, the pH-dependent lipophilicity (logD) in data set [1] was determined as 1.67. Moreover, inhibition in the data set on Plasmodium falciparum was half-maximal at 292 nM (IC50).

In data set [1], `O=C1C=C(NCCCCCCCCCC[P+](Cc2ccccc2)(Cc2ccccc2)Cc2ccccc2)C(=O)c2ccccc21` returned a log distribution coefficient (logD) of 2.8. Also, the IC50 in the data set with Plasmodium falciparum was found to be 215 nM.

Regarding `COc1ccc([P+](CCCCCCCCCCNC2=CC(=O)c3ccccc3C2=O)(c2ccc(OC)cc2)c2ccc(OC)cc2)cc1`, the logD in data set [1] is 4.37. Moreover, in the data set on Plasmodium falciparum, the IC50 turned out to be 134 nM.

With `O=C1C=C(NCCCCCCCCCC[P+](c2ccccc2)(c2ccccc2)c2ccccc2)C(=O)c2ccccc21`, the half-maximal inhibitory concentration (IC50) in the data set with Trypanosoma cruzi stood at 1600 nM; in the data set on Plasmodium falciparum, 114 nM. This compound also showed a logD in data set [1] of 3.6. Also, the Activity result in the data set on Vero [2] and with Vero [3] was “Toxic” each time.

In data set [1], `O=C1C=C(NCCCCCCCCCC[P+](C2CCCCC2)(C2CCCCC2)C2CCCCC2)C(=O)c2ccccc21` gave a logD of 3.41. This compound also registered an IC50 in the data set with Plasmodium falciparum of 94.4 nM.

Regarding `O=C1C=C(CCCCCCCCCC[P+](Cc2ccccc2)(Cc2ccccc2)Cc2ccccc2)C(=O)c2ccccc21`, the IC50 with Trypanosoma cruzi came out at 3000 nM; with Plasmodium falciparum it was 1300 nM. The compound also gave a logD in data set [1] of 5.32. In addition, the Activity entry in the data set with Vero [2] and in the data set on Vero [3] was “Non-toxic” throughout.

As to `O=C1C=C(CCCCCCCCCC[P+](c2ccc(F)cc2)(c2ccc(F)cc2)c2ccc(F)cc2)C(=O)c2ccccc21`, in data set [1], the logD amounted to 1.66. The half-maximal inhibitory concentration (IC50) with Plasmodium falciparum is 846 nM.

For `O=C1C=C(CCCCCCCCCC[P+](c2ccccc2)(c2ccccc2)c2ccccc2)C(=O)c2ccccc21`, the pH-dependent lipophilicity (logD) in data set [1] is listed as 4.08. This compound also returned a concentration for half-maximal inhibition (IC50) with Plasmodium falciparum of 259 nM.

`O=C1C=C(CCCCC[P+](c2ccccc2)(c2ccccc2)c2ccccc2)C(=O)c2ccccc21` gave a log distribution coefficient (logD) in data set [1] of 1. This compound had a concentration for half-maximal inhibition (IC50) in the data set with Plasmodium falciparum of 157 nM.

Consider `CC1=C(CCCCC[P+](C)(C)C)C(=O)c2ccccc2C1=O`, for which the logD in data set [1] is 0.21. The concentration for half-maximal inhibition (IC50) in the data set on Plasmodium falciparum was found to be 956 nM.

With `CC1=C(C[P+](c2ccccc2)(c2ccccc2)c2ccccc2)C(=O)c2ccccc2C1=O`, the logD in data set [1] is 1.89. The same compound registered an IC50 in the data set on Plasmodium falciparum of 543 nM.

As to `CC1=C(CCCCCCCCCC[P+](Cc2ccccc2)(Cc2ccccc2)Cc2ccccc2)C(=O)c2ccccc2C1=O`, the IC50 was determined as 3700 nM with Trypanosoma cruzi and 212 nM in the data set with Plasmodium falciparum. In data set [1], this compound registered a logD of 6.64. The Activity result is reported as “Toxic” with Vero [2] and “Non-toxic” with Vero [3].

For `CCCC[P+](CCCC)(CCCC)CCCCCCCCCCC1=C(C)C(=O)c2ccccc2C1=O`, the half-maximal inhibitory concentration (IC50) was found to be 4000 nM in the data set on Trypanosoma cruzi and 156 nM in the data set with Plasmodium falciparum. In addition, the pH-dependent lipophilicity (logD) in data set [1] worked out at 5.1. In addition, the results for the Activity result in the data set on Vero [2] and in the data set with Vero [3] were “Toxic” and “Non-toxic”, respectively.

`CC1=C(CCCCCCCCCC[P+](c2ccccc2C)(c2ccccc2C)c2ccccc2C)C(=O)c2ccccc2C1=O` had a pH-dependent lipophilicity (logD) in data set [1] of 3.58. Moreover, in the data set with Plasmodium falciparum, it took 143 nM to reach half-maximal inhibition (IC50).

For the compound `CC1=C(CCCCCCCCCC[P+](c2ccccc2)(c2ccccc2)c2ccccc2)C(=O)c2ccccc2C1=O`, the 50% inhibitory concentration (IC50) in the data set on Trypanosoma cruzi amounted to 1600 nM; with Plasmodium falciparum, 143 nM. Moreover, the logD in data set [1] stood at 3.97. Further, the Activity result with Vero [2] and in the data set with Vero [3] was “Toxic” each time.

With `CC1=C(CCCCCCCCCC[P+](C2CCCCC2)(C2CCCCC2)C2CCCCC2)C(=O)c2ccccc2C1=O`, the IC50 worked out at 2400 nM in the data set with Trypanosoma cruzi and 134 nM in the data set with Plasmodium falciparum. The same compound returned a logD in data set [1] of 3.64. Moreover, the Activity result in the data set on Vero [2] is listed as “Toxic”; with Vero [3], “Non-toxic”.

In data set [1], `COc1ccc([P+](CCCCCCCCCCC2=C(C)C(=O)c3ccccc3C2=O)(c2ccc(OC)cc2)c2ccc(OC)cc2)cc1` displayed a logD of 3.52. Also, the half-inhibitory concentration (IC50) in the data set with Plasmodium falciparum is 131 nM.

In the case of `CC1=C(CCCCC[P+](c2ccccc2)(c2ccccc2)c2ccccc2)C(=O)c2ccccc2C1=O`, the IC50 in the data set on Trypanosoma cruzi worked out at 5400 nM; in the data set on Plasmodium falciparum, 48.3 nM. This compound had a logD in data set [1] of 2.15. For the same compound, the results for the Activity entry with Vero [2] and in the data set on Vero [3] were “Toxic” and “Non-toxic”, respectively.

On to `CC1=C(CCCC[P+](c2ccccc2)(c2ccccc2)c2ccccc2)C(=O)c2ccccc2C1=O`, for which the IC50 in the data set on Trypanosoma cruzi was 2700 nM; in the data set with Plasmodium falciparum, 18.7 nM. The same compound yielded a log distribution coefficient (logD) in data set [1] of 1.91. In addition, the Activity entry with Vero [2] and in the data set on Vero [3] was “Non-toxic” each time.

For the compound `CCCCCCCCCNC1=CC(=O)c2ccccc2C1=O`, the IC50 in the data set on Trypanosoma cruzi was 17300 nM; in the data set with Plasmodium falciparum, greater than 10000 nM. In addition, the Activity entry with Vero [2] and in the data set with Vero [3] was “Non-toxic” in each case.

As for `CCCCCCCCCCC1=CC(=O)c2ccccc2C1=O`, the half-maximal inhibitory concentration (IC50) was 9300 nM with Trypanosoma cruzi and greater than 10000 nM in the data set with Plasmodium falciparum. Also, the Activity result in the data set on Vero [2] and with Vero [3] was “Non-toxic” in each case.

For `CCCCCCCCCCN1C(=O)c2ccccc2C1=O`, in the data set with Plasmodium falciparum, the concentration for half-maximal inhibition (IC50) was greater than 10000 nM.

The compound `C[C@@H]1CC[C@H]2[C@@H](C)C(=O)O[C@@H]3O[C@@]4(C)CC[C@@H]1[C@]32OO4` [ARTEMISININ] gave a concentration for half-maximal inhibition (IC50) in the data set with Plasmodium falciparum of 7.31 nM.

Consider `O=C1C(O)=C([C@H]2CC[C@H](c3ccc(Cl)cc3)CC2)C(=O)c2ccccc21` [ATOVAQUONE], for which 0.28 nM corresponded to half-maximal inhibition in the data set with Plasmodium falciparum (IC50).

For the compound `O=C(Cn1ccnc1[N+](=O)[O-])NCc1ccccc1` [BENZNIDAZOLE], the Activity result in the data set on Vero [2] and in the data set with Vero [3] was “Non-toxic” throughout.

In the data set on Plasmodium falciparum, `CCCC[P+](c1ccccc1)(c1ccccc1)c1ccccc1` [BUTYLTRIPHENYLPHOSPHONIUM] registered a half-maximal inhibitory concentration (IC50) of 3500 nM.

Take `CCCCCCCCCC[P+](c1ccccc1)(c1ccccc1)c1ccccc1` [DECYLTRIPHENYLPHOSPHONIUM]: in the data set with Plasmodium falciparum, it took 142 nM to reach half-maximal inhibition (IC50).
